In ChEMBL document CHEMBL1201862, “PubChem BioAssay data set” (2004):
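Assay format: 96-well plates, 48-hour exposure. The concentration for 50% growth inhibition is given as GI50.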 Calls of active or inactive are those of the source. Cut-off read from the data, not from the text of the source: active = GI50 up to about 1.1 µM and inactive = higher.

What was measured:
Experiment in all cases: growth of human tumour cells (NCI), 48 h
HT-29 = tested on: HT-29
SNB-75 = tested on: SNB-75
LOX IMVI = tested on: LOX IMVI
SW-620 = tested on: SW-620
UACC-257 = tested on: UACC-257
SK-MEL-5 = tested on: SK-MEL-5
A498 = tested on: A498
RXF 393 = tested on: RXF 393
U-251 = tested on: U-251
UO-31 = tested on: UO-31
HCT-116 = tested on: HCT-116
T47D = tested on: T47D
M14 = tested on: M14
RPMI-8226 = tested on: RPMI-8226
SK-OV-3 = tested on: SK-OV-3
NCI-H23 = tested on: NCI-H23
Hs-578T = tested on: Hs-578T
OVCAR-3 = tested on: OVCAR-3
DU-145 = tested on: DU-145
SNB-19 = tested on: SNB-19
COLO 205 = tested on: COLO 205
BT-549 = tested on: BT-549
SN12C = tested on: SN12C
MDA-MB-231 = tested on: MDA-MB-231
SF-539 = tested on: SF-539
UACC-62 = tested on: UACC-62
SK-MEL-2 = tested on: SK-MEL-2
SK-MEL-28 = tested on: SK-MEL-28
CCRF-CEM = tested on: CCRF-CEM
EKVX = tested on: EKVX
HOP-92 = tested on: HOP-92
NCI-H226 = tested on: NCI-H226
786-0 = tested on: 786-0
MDA-MB-435 = tested on: MDA-MB-435
NCI/ADR-RES = tested on: NCI/ADR-RES
OVCAR-4 = tested on: OVCAR-4
CAKI-1 = tested on: CAKI-1
IGROV-1 = tested on: IGROV-1
SF-295 = tested on: SF-295
ACHN = tested on: ACHN
NCI-H460 = tested on: NCI-H460
HCC 2998 = tested on: HCC 2998
HOP-62 = tested on: HOP-62
OVCAR-5 = tested on: OVCAR-5
MOLT-4 = tested on: MOLT-4
PC-3 = tested on: PC-3
HCT-15 = tested on: HCT-15
KM12 = tested on: KM12
MDA-N = tested on: MDA-N
TK-10 = tested on: TK-10
OVCAR-8 = tested on: OVCAR-8
MCF7 = tested on: MCF7
A549 = tested on: A549
HL-60 = tested on: HL-60
SF-268 = tested on: SF-268
K562 = tested on: K562
NCI-H522 = tested on: NCI-H522
Malme-3M = tested on: Malme-3M

For `Cc1ccc(S(=O)(=O)Oc2cc(N)c3c(n2)CCC3)cc1`, the GI50 (HT-29) was 48.3 µM (inactive), the GI50 (SNB-75) was > 100 µM (inactive) and the GI50 (LOX IMVI) was > 100 µM (inactive). For the same compound, the GI50 (SW-620) was > 100 µM (inactive), the GI50 (UACC-257) was 46.2 µM (inactive) and the GI50 (SK-MEL-5) was 39 µM (inactive). The GI50 (A498) was 69.2 µM (inactive), the GI50 (RXF 393) was > 100 µM (inactive) and the GI50 (U-251) was > 100 µM (inactive). For the same compound, the GI50 (UO-31) was 69.3 µM (inactive), the GI50 (HCT-116) was > 100 µM (inactive) and the GI50 (T47D) was 56.4 µM (inactive). The GI50 (M14) was > 100 µM (inactive), the GI50 (RPMI-8226) was 24.3 µM (inactive) and the GI50 (SK-OV-3) was > 100 µM (inactive). For the same compound, the GI50 (NCI-H23) was > 100 µM (inactive), the GI50 (Hs-578T) was > 100 µM (inactive) and the GI50 (OVCAR-3) was 37.9 µM (inactive). For the same compound, the GI50 (DU-145) was > 100 µM (inactive), the GI50 (SNB-19) was > 100 µM (inactive) and the GI50 (COLO 205) was 53.5 µM (inactive). For the same compound, the GI50 (BT-549) was > 100 µM (inactive), the GI50 (SN12C) was > 100 µM (inactive) and the GI50 (MDA-MB-231) was > 100 µM (inactive). The GI50 (SF-539) was > 100 µM (inactive), the GI50 (UACC-62) was 97.5 µM (inactive) and the GI50 (SK-MEL-2) was > 100 µM (inactive). The GI50 (SK-MEL-28) was > 100 µM (inactive), the GI50 (CCRF-CEM) was 64.1 µM (inactive) and the GI50 (EKVX) was 42.3 µM (inactive). For the same compound, the GI50 (HOP-92) was 52.6 µM (inactive), the GI50 (NCI-H226) was 36.8 µM (inactive) and the GI50 (786-0) was > 100 µM (inactive). For the same compound, the GI50 (MDA-MB-435) was > 100 µM (inactive), the GI50 (NCI/ADR-RES) was 79.8 µM (inactive) and the GI50 (OVCAR-4) was 34.4 µM (inactive). For the same compound, the GI50 (CAKI-1) was > 100 µM (inactive), the GI50 (IGROV-1) was > 100 µM (inactive) and the GI50 (SF-295) was 53.8 µM (inactive). For the same compound, the GI50 (ACHN) was > 100 µM (inactive), the GI50 (NCI-H460) was > 100 µM (inactive) and the GI50 (HCC 2998) was > 100 µM (inactive). For the same compound, the GI50 (HOP-62) was > 100 µM (inactive), the GI50 (OVCAR-5) was > 100 µM (inactive) and the GI50 (MOLT-4) was 33.7 µM (inactive). The GI50 (PC-3) was > 100 µM (inactive), the GI50 (HCT-15) was > 100 µM and the GI50 (KM12) was > 100 µM (inactive). The GI50 (MDA-N) was > 100 µM (inactive), the GI50 (TK-10) was > 100 µM (inactive) and the GI50 (OVCAR-8) was > 100 µM (inactive). The GI50 (MCF7) was > 100 µM (inactive), the GI50 (A549) was > 100 µM (inactive) and the GI50 (HL-60) was 43.2 µM (inactive). For the same compound, the GI50 (SF-268) was > 100 µM (inactive) and the GI50 (K562) was 67 µM (inactive).
In the case of `CSc1c(C#N)c(N)n2c1C(=O)N(c1ccccc1)C2=S`, the GI50 (HT-29) was 90.2 µM (inactive), the GI50 (SNB-75) was 53.3 µM (inactive) and the GI50 (NCI-H522) was 21.2 µM (inactive). For the same compound, the GI50 (LOX IMVI) was 72.1 µM (inactive), the GI50 (SW-620) was 85.1 µM (inactive) and the GI50 (UACC-257) was > 100 µM (inactive). The GI50 (SK-MEL-5) was > 100 µM (inactive), the GI50 (A498) was 23 µM (inactive) and the GI50 (RXF 393) was > 100 µM (inactive). For the same compound, the GI50 (U-251) was 41.9 µM (inactive), the GI50 (UO-31) was > 100 µM (inactive) and the GI50 (HCT-116) was 38.3 µM (inactive). The GI50 (T47D) was 52.6 µM (inactive), the GI50 (M14) was > 100 µM (inactive) and the GI50 (SK-OV-3) was 91.6 µM (inactive). For the same compound, the GI50 (NCI-H23) was 28.2 µM (inactive), the GI50 (Hs-578T) was 28 µM (inactive) and the GI50 (OVCAR-3) was > 100 µM (inactive). For the same compound, the GI50 (DU-145) was > 100 µM (inactive), the GI50 (SNB-19) was > 100 µM (inactive) and the GI50 (COLO 205) was 30 µM (inactive). The GI50 (BT-549) was > 100 µM (inactive), the GI50 (SN12C) was 74 µM (inactive) and the GI50 (MDA-MB-231) was 20.3 µM (inactive). The GI50 (SF-539) was 92.7 µM (inactive), the GI50 (UACC-62) was > 100 µM (inactive) and the GI50 (SK-MEL-28) was > 100 µM (inactive). For the same compound, the GI50 (Malme-3M) was 90.4 µM (inactive), the GI50 (CCRF-CEM) was 68.2 µM (inactive) and the GI50 (EKVX) was 8.2 µM (inactive). The GI50 (HOP-92) was 31.3 µM (inactive), the GI50 (NCI-H226) was > 100 µM (inactive) and the GI50 (786-0) was 32.6 µM (inactive). The GI50 (MDA-MB-435) was > 100 µM (inactive), the GI50 (NCI/ADR-RES) was 80.5 µM (inactive) and the GI50 (OVCAR-4) was 26.5 µM (inactive). The GI50 (CAKI-1) was 77.1 µM (inactive), the GI50 (IGROV-1) was 41.7 µM (inactive) and the GI50 (SF-295) was 38.6 µM (inactive). The GI50 (ACHN) was 48.2 µM (inactive), the GI50 (NCI-H460) was > 100 µM (inactive) and the GI50 (HCC 2998) was > 100 µM (inactive). The GI50 (HOP-62) was 63 µM (inactive), the GI50 (OVCAR-5) was > 100 µM (inactive) and the GI50 (MOLT-4) was > 100 µM (inactive). The GI50 (PC-3) was 61.7 µM (inactive), the GI50 (HCT-15) was > 100 µM and the GI50 (KM12) was 51.5 µM (inactive). For the same compound, the GI50 (MDA-N) was > 100 µM (inactive), the GI50 (TK-10) was > 100 µM (inactive) and the GI50 (OVCAR-8) was 92.9 µM (inactive). For the same compound, the GI50 (MCF7) was > 100 µM (inactive), the GI50 (A549) was > 100 µM (inactive) and the GI50 (HL-60) was > 100 µM (inactive). The GI50 (SF-268) was 88.1 µM (inactive) and the GI50 (K562) was > 100 µM (inactive).
With `Nc1nnnn1CCO` the GI50 (HT-29) was > 100 µM (inactive), the GI50 (SNB-75) was > 100 µM (inactive) and the GI50 (NCI-H522) was > 100 µM (inactive). For the same compound, the GI50 (LOX IMVI) was > 100 µM (inactive), the GI50 (SW-620) was > 100 µM (inactive) and the GI50 (UACC-257) was > 100 µM (inactive). The GI50 (SK-MEL-5) was > 100 µM (inactive), the GI50 (A498) was > 100 µM (inactive) and the GI50 (RXF 393) was > 100 µM (inactive). The GI50 (U-251) was > 100 µM (inactive), the GI50 (UO-31) was > 100 µM (inactive) and the GI50 (HCT-116) was > 100 µM (inactive). The GI50 (T47D) was > 100 µM (inactive), the GI50 (M14) was > 100 µM (inactive) and the GI50 (RPMI-8226) was > 100 µM (inactive). The GI50 (SK-OV-3) was > 100 µM (inactive), the GI50 (NCI-H23) was > 100 µM (inactive) and the GI50 (Hs-578T) was > 100 µM (inactive). For the same compound, the GI50 (OVCAR-3) was > 100 µM (inactive), the GI50 (DU-145) was > 100 µM (inactive) and the GI50 (SNB-19) was > 100 µM (inactive). The GI50 (COLO 205) was > 100 µM (inactive), the GI50 (BT-549) was > 100 µM (inactive) and the GI50 (SN12C) was > 100 µM (inactive). The GI50 (MDA-MB-231) was > 100 µM (inactive), the GI50 (SF-539) was > 100 µM (inactive) and the GI50 (UACC-62) was > 100 µM (inactive). The GI50 (SK-MEL-2) was > 100 µM (inactive), the GI50 (SK-MEL-28) was > 100 µM (inactive) and the GI50 (Malme-3M) was > 100 µM (inactive). For the same compound, the GI50 (EKVX) was > 100 µM (inactive), the GI50 (HOP-92) was > 100 µM (inactive) and the GI50 (NCI-H226) was > 100 µM (inactive). For the same compound, the GI50 (786-0) was > 100 µM (inactive), the GI50 (MDA-MB-435) was > 100 µM (inactive) and the GI50 (NCI/ADR-RES) was > 100 µM (inactive). The GI50 (OVCAR-4) was > 100 µM (inactive), the GI50 (CAKI-1) was > 100 µM (inactive) and the GI50 (IGROV-1) was > 100 µM (inactive). The GI50 (SF-295) was > 100 µM (inactive), the GI50 (ACHN) was > 100 µM (inactive) and the GI50 (NCI-H460) was > 100 µM (inactive). The GI50 (HOP-62) was > 100 µM (inactive), the GI50 (OVCAR-5) was > 100 µM (inactive) and the GI50 (PC-3) was > 100 µM (inactive). For the same compound, the GI50 (HCT-15) was > 100 µM, the GI50 (KM12) was > 100 µM (inactive) and the GI50 (MDA-N) was > 100 µM (inactive). The GI50 (TK-10) was > 100 µM (inactive), the GI50 (OVCAR-8) was > 100 µM (inactive) and the GI50 (MCF7) was > 100 µM (inactive). The GI50 (A549) was > 100 µM (inactive), the GI50 (SF-268) was > 100 µM (inactive) and the GI50 (K562) was > 100 µM (inactive).
